Experimental data taken from US11235018B2, “Composition for preventing or treating cancer” (OKCHUNDANG CO., LTD., priority 2018, dated 2022).
Marks after values point to notes of the source that are not given here.

Tests used:
[1] = Histopathological change of spleen; assay type: in vivo, mice; conditions: single: gefitinib 120 mg/kg or SKOG 400 mg/kg, oral, 35 days
[2] = Body weight and weight gain in NCI-H520 xenograft mice; assay type: in vivo; conditions: single: gefitinib 120 mg/kg or SKOG 400 mg/kg
[3] = Spleen weight in NCI-H520 xenograft mice; assay type: in vivo; conditions: single: gefitinib 120 mg/kg or SKOG 400 mg/kg, oral, 35 days
[4] = system: NCI-H520 tumor cell xenograft; experiment: Tumor weight in NCI-H520 xenograft mice; assay type: in vivo; conditions: single: gefitinib 120 mg/kg or SKOG 400 mg/kg, oral, 35 days
[5] = Periovarian fat weight in NCI-H520 xenograft mice; assay type: in vivo; conditions: single: gefitinib 120 mg/kg or SKOG 400 mg/kg, oral, 35 days
[6] = system: NCI-H520 tumor cell xenograft; experiment: Tumor volume in NCI-H520 xenograft mice; assay type: in vivo; conditions: single: gefitinib 120 mg/kg or SKOG 400 mg/kg
[7] = Histopathological change of submandibular lymph nodes; assay type: in vivo, mice; conditions: single: gefitinib 120 mg/kg or SKOG 400 mg/kg, oral, 35 days
IL-6 = experiment: Serum IL-6 level in NCI-H520 xenograft mice; assay type: in vivo; conditions: single: gefitinib 120 mg/kg or SKOG 400 mg/kg, oral, 35 days
Caspase-3 = experiment: Intratumoral caspase-3 immune response cells; assay type: in vivo, mice; conditions: single: gefitinib 120 mg/kg or SKOG 400 mg/kg, oral, 35 days
IL-10 = experiment: Splenic IL-10 level in NCI-H520 xenograft mice; assay type: in vivo; conditions: single: gefitinib 120 mg/kg or SKOG 400 mg/kg, oral, 35 days
peritoneal NK cell = experiment: Peritoneal NK cell activity in NCI-H520 xenograft mice; assay type: in vivo; conditions: single: gefitinib 120 mg/kg or SKOG 400 mg/kg, oral, 35 days
COX-2 = experiment: Intratumoral COX-2 immune response cells; assay type: in vivo, mice; conditions: single: gefitinib 120 mg/kg or SKOG 400 mg/kg, oral, 35 days
IL-1β = experiment: Splenic IL-1β level in NCI-H520 xenograft mice; assay type: in vivo; conditions: single: gefitinib 120 mg/kg or SKOG 400 mg/kg, oral, 35 days
[8] = Submandibular lymph node weight in NCI-H520 xenograft mice; assay type: in vivo; conditions: single: gefitinib 120 mg/kg or SKOG 400 mg/kg, oral, 35 days
iNOS = experiment: Intratumoral iNOS immune response cells; assay type: in vivo, mice; conditions: single: gefitinib 120 mg/kg or SKOG 400 mg/kg, oral, 35 days
TNF-α [9] = experiment: Intratumoral TNF-α immune response cells; assay type: in vivo, mice; conditions: single: gefitinib 120 mg/kg or SKOG 400 mg/kg, oral, 35 days
splenic NK cell = experiment: Splenic NK cell activity in NCI-H520 xenograft mice; assay type: in vivo; conditions: single: gefitinib 120 mg/kg or SKOG 400 mg/kg, oral, 35 days
[10] = system: NCI-H520 tumor cell xenograft; experiment: Histopathological change of tumor mass (tumor cell volume, apoptotic cells); assay type: in vivo, mice; conditions: single: gefitinib 120 mg/kg or SKOG 400 mg/kg, oral, 35 days
PARP = experiment: Intratumoral PARP immune response cells; assay type: in vivo, mice; conditions: single: gefitinib 120 mg/kg or SKOG 400 mg/kg, oral, 35 days
[11] = Histopathological change of periovarian fat; assay type: in vivo, mice; conditions: single: gefitinib 120 mg/kg or SKOG 400 mg/kg, oral, 35 days
IFN-γ = experiment: Serum IFN-γ level in NCI-H520 xenograft mice; assay type: in vivo; conditions: single: gefitinib 120 mg/kg or SKOG 400 mg/kg, oral, 35 days
TNF-α [12] = experiment: Splenic TNF-α level in NCI-H520 xenograft mice; assay type: in vivo; conditions: single: gefitinib 120 mg/kg or SKOG 400 mg/kg, oral, 35 days

In the case of `COc1cc2ncnc(Nc3ccc(F)c(Cl)c3)c2cc1OCCCN1CCOCC1` [Gefitinib, N-(3-chloro-4-fluorophenyl)-7-methoxy-6-(3-morpholinopropoxy)quinazolin-4-amine], the “Number of splenic white pulps” value [1] is reported as 4.63 ± 1.85^a /mm^2, the “Splenic white pulp diameter” value [1] is reported as 187.63 ± 73.54^e μm/white pulp and the “change of number of splenic white pulps compared with tumor xenograft control group” value [1] is reported as −5.13%. For the same compound, the “change of splenic overall thickness compared with tumor xenograft control group” value [1] was 0.42%, the “change of splenic white pulp diameter compared with tumor xenograft control group” value [1] was −0.60% and the “Body weight, administration initiation” value ([2]; baseline) was 19.29 ± 1.29 g. The “Actual body weight (excluding tumor weight)” value ([2]; oral, 35 days) was 18.46 ± 0.77^ad g, the “Body weight, sacrifice” value ([2]; oral, 35 days) was 20.13 ± 0.76^fg and the Weight gain ([2]; oral, 35 days) was −0.83 ± 0.98^ac g. The “change of actual body weight excluding tumor weight compared with tumor xenograft group” value ([2]; oral, 35 days) was −6.61%, the “change of weight gain during administration period compared with tumor xenograft control group” value ([2]; oral, 35 days) was −341.95% and the “Spleen (absolute weight)” value [3] was 0.051 ± 0.007^a. The “Spleen (relative weight)” value [3] was 0.251 ± 0.036^a, the “change of absolute spleen weight compared with tumor xenograft control group” value [3] was −7.13% and the “change of relative spleen weight compared with tumor xenograft control group” value [3] was 4.11%. For the same compound, the “Tumor weight (absolute weight)” value [4] was 1.664 ± 0.292^f, the “Tumor weight (relative weight)” value [4] was 8.274 ± 1.443^g and the “change in absolute tumor weight compared with tumor xenograft control group” value [4] was −40.73%. For the same compound, the “change in relative tumor weight compared with tumor xenograft control group” value [4] was −33.56%, the “Periovarian fat (absolute weight)” value [5] was 0.007 ± 0.002^d and the “Periovarian fat (relative weight)” value [5] was 0.036 ± 0.011^e. The “change of absolute periovarian fat weight compared with tumor xenograft control group” value [5] was −13.43%, the “change of relative periovarian fat weight compared with tumor xenograft control group” value [5] was −2.79% and the “Tumor volume, start of administration [A]” value ([6]; baseline) was 462.10 ± 105.87 mm^3. The “Tumor volume change [B − A]” value ([6]; oral, 35 days) was 2396.41 ± 329.84 ^a mm^3, the “Tumor volume, at the time of sacrifice [B]” value ([6]; oral, 35 days) was 2858.51 ± 377.01^a mm^3 and the “change in tumor volume during drug administration period compared with tumor xenograft control group” value ([6]; oral, five weeks) was −60.18%. For the same compound, the “Number of intracortical follicles” value [7] was 5.38 ± 2.39^d /mm^2, the “change of number of intracortical follicles in the submandibular lymph nodes compared with tumor xenograft control group” value [7] was −6.52% and the “change of submandibular lymph node cortex thickness compared with tumor xenograft control group” value [7] was −3.84%. The “change of submandibular lymph node overall thickness compared with tumor xenograft control group” value [7] was −2.55%, the cortex thickness [7] was 215.75 ± 43.93^d μm/lymph node and the “submandibular lymph node overall thickness” value [7] was 501.50 ± 106.64^a μm/central region. For the same compound, the “change of serum IL-6 level compared with tumor xenograft control group” value (IL-6) was 6.25%, the “Percentage of immune-responsive cells, Caspase-3” value (Caspase-3) was 40.60 %/tumor cells and the “change of proportion of caspase-3 immune response cells in the tumor tissue compared with tumor xenograft control group” value (Caspase-3) was 268.77%. For the same compound, the “Splenic IL-10 (Interleukin-10) level” value (IL-10) was 25.58 ± 11.94^a, the “change of splenic IL-10 level compared with tumor xenograft control group” value (IL-10) was −3.53% and the “change of peritoneal NK cell activity compared with tumor xenograft control group” value (peritoneal NK cell) was −7.43%. The “Percentage of immune-responsive cells, COX-2” value (COX-2) was 38.89 %/tumor cells, the “change of proportion of COX-2 immune response cells in the tumor tissue compared with tumor xenograft control group” value (COX-2) was −35.00% and the “Splenic IL-1β (Interleukin-1β) level” value (IL-1β) was 8.36 ± 1.96^a. For the same compound, the “change of splenic IL-1β level compared with tumor xenograft control group” value (IL-1β) was −3.18%, the “Submandibular lymph nodes (absolute weight)” value [8] was 0.004 ± 0.001^d and the “change in absolute submandibular lymph node weight compared with tumor xenograft control group” value [8] was −8.82%. For the same compound, the “change in relative submandibular lymph node weight compared with tumor xenograft control group” value [8] was 1.85%, the “submandibular lymph nodes (relative weight)” value [8] was 0.019 ± 0.006^e and the “Percentage of immune-responsive cells, iNOS” value (iNOS) was 12.07 %/tumor cells. For the same compound, the “change of proportion of iNOS immune response cells in the tumor tissue compared with tumor xenograft control group” value (iNOS) was −0.50%, the “Percentage of immune-responsive cells, TNF-α” value (TNF-α [9]) was 7.28 %/tumor cells and the “change of proportion of TNF-α immune response cells in the tumor tissue compared with tumor xenograft control group” value (TNF-α [9]) was −6.19%. The “change of splenic NK cell activity compared with tumor xenograft control group” value (splenic NK cell) was −6.32%, the “Percentage of apoptotic cells” value [10] was 49.88% and the Tumor cell volume [10] was 56.28 %/mm^2. For the same compound, the “change of proportion of apoptotic cells in the tumor tissue compared with tumor xenograft control group” value [10] was 560.23%, the “change of proportion of tumor cells in the tumor tissue compared with tumor xenograft control group” value [10] was −29.01% and the “Percentage of immune-responsive cells, PARP” value (PARP) was 46.98 %/tumor cells. For the same compound, the “change of proportion of PARP immune response cells in the tumor tissue compared with tumor xenograft control group” value (PARP) was 223.59%, the “White fat cell average diameter” value [11] was 12.36 ± 1.95^d μm and the “change of periovarian accumulation fat thickness compared with tumor xenograft control group” value [11] was −8.19%. For the same compound, the “change of white fat cell average diameter compared with tumor xenograft control group” value [11] was −6.37%, the “change of serum IFN-γ level compared with tumor xenograft control group” value (IFN-γ) was −2.85% and the “Splenic TNF-α (Tumor necrosis factor-α) level” value (TNF-α [12]) was 26.23 ± 10.81^a. The “change of splenic TNF-α level compared with tumor xenograft control group” value (TNF-α [12]) was −0.24%.
